The assay deals with small intestine. Kind of assay: Histology study of villi length and crypt depth (H&E sections, imagescope). The format is in vivo, female CD-1 mice. The following applies: after administration vs without treatment, FIGS. 1-3; for villus height: small intestine. Here is the method:
Various doses of GLP-2 peptibody B264 were analyzed to assess the pharmacodynamic plateau, with the primary endpoint a measurement of the small intestinal weight relative to the total body weight and a histology study of the length of villi. 11 groups of six female CD-1 mice each were formed. [table] For histology, four micron paraffin sections were prepared for H&E and Ki67 IHC staining. After whole slide scanning, an imagescope was used to measure villi length and crypt depth, and to analyze Ki67. The antibody against Ki67 is a rabbit antibody sold by Adcam®, catalog number ab 616667. The antibody was used at a working concentration of 1:100 and was detected using a Leica® Refine Kit. […] See, e.g., Example 13 of U.S. Provisional Application No. 62/548,601, filed Aug. 22, 2017 for more data and examples with respect to GLP-2 peptibody B264, GLP-2 peptibody […], and a GLP-2[[…]] peptide.

The source of these data is patent publication US11660328B2, “GLP-2 analogs and peptibodies for administration before, during or after surgery” (TAKEDA PHARMACEUTICAL COMPANY LIMITED, priority 2017, dated 2023).

Turning to `CC[C@H](C)[C@H](NC(=O)[C@H](Cc1ccccc1)NC(=O)[C@H](CC(=O)O)NC(=O)[C@H](CCCNC(=N)N)NC(=O)[C@H](C)NC(=O)[C@H](C)NC(=O)[C@H](CC(C)C)NC(=O)[C@H](CC(N)=O)NC(=O)[C@H](CC(=O)O)NC(=O)[C@H](CC(C)C)NC(=O)[C@@H](NC(=O)[C@@H](NC(=O)[C@H](CC(N)=O)NC(=O)[C@H](CCSC)NC(=O)[C@H](CCC(=O)O)NC(=O)[C@H](CC(=O)O)NC(=O)[C@H](CO)NC(=O)[C@H](Cc1ccccc1)NC(=O)[C@H](CO)NC(=O)CNC(=O)[C@H](CC(=O)O)NC(=O)CNC(=O)[C@@H](N)Cc1c[nH]cn1)[C@@H](C)O)[C@@H](C)CC)C(=O)N[C@@H](CC(N)=O)C(=O)N[C@@H](Cc1c[nH]c2ccccc12)C(=O)N[C@@H](CC(C)C)C(=O)N[C@H](C(=O)N[C@@H](CCC(N)=O)C(=O)N[C@H](C(=O)N[C@@H](CCCCN)C(=O)N[C@H](C(=O)N[C@H](C(=O)N[C@@H](CC(=O)O)C(=O)O)[C@@H](C)O)[C@@H](C)CC)[C@@H](C)O)[C@@H](C)CC` [h(Gly2)GLP-2, teduglutide, reference compound], the “crypt depth in the small intestine” value is listed as “increased crypt depth” and the villus height entry is “increased villus height”.

“GLP-2 peptibody K274: GLP-2 peptibody having the amino acid sequence of SEQ ID NO: 4 (GLP-2[A2G]-linker-IgG1 Fc fusion)”: the “crypt depth in the small intestine” value is “increased crypt depth” and the villus height entry is listed as “increased villus height”.
